Like-named read-outs stand apart in the source and are kept apart here.
How the values were obtained:
[1] = test system: IL6 secretion by OCI-LY3 ABC-DLBCL cells; test: Human IL6 Mesoscale assay (OCI-LY3); assay type: cell-based; conditions: 24 h
Outline: (§1)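 After 24 h at 37 °C with test compounds (15 μM down to 58.6 nM, 9 twofold steps, 0.3% DMSO), IL6 and IL10 secreted by 100,000 OCI-LY3 or TMD8 cells per well were measured in supernatants with a Mesoscale immunoassay. Data were scaled between DMSO wells (high) and RN486 treatment (low).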

[2] = test system: IL10 secretion by OCI-LY3 ABC-DLBCL cells; test: Human IL10 Mesoscale assay (OCI-LY3); assay type: cell-based; conditions: 24 h
Outline: as §1

TMD8 cells = test: 4-day proliferation assay, TMD8; assay type: cell-based; conditions: 4 days incubation, CellTiterGLO, read-out: Anti-proliferation: TMD-8 IC50
Outline: (§2)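 Each line was plated at 10,000 cells per well for linear growth, with no beta-mercaptoethanol during the assay. OCI-Ly3 cells were below passage 10.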

[3] = target: full-length MALT1 protein (Strep-MALT1(1-824)-His) (Homo sapiens (Human), UniProt Q9UDY8); test: MALT1 Biochemical Protease Assay (Ac-LRSR-AMC substrate); conditions: 10 nM FL MALT1, 200 μM Ac-LRSR-AMC, 4 h at RT; read-out: MALT1_Biochemical activity (Ac-LRSR-amc) IC50
Chain of full-length MALT1 protein (Strep-MALT1(1-824)-His) (Q9UDY8 whole entry): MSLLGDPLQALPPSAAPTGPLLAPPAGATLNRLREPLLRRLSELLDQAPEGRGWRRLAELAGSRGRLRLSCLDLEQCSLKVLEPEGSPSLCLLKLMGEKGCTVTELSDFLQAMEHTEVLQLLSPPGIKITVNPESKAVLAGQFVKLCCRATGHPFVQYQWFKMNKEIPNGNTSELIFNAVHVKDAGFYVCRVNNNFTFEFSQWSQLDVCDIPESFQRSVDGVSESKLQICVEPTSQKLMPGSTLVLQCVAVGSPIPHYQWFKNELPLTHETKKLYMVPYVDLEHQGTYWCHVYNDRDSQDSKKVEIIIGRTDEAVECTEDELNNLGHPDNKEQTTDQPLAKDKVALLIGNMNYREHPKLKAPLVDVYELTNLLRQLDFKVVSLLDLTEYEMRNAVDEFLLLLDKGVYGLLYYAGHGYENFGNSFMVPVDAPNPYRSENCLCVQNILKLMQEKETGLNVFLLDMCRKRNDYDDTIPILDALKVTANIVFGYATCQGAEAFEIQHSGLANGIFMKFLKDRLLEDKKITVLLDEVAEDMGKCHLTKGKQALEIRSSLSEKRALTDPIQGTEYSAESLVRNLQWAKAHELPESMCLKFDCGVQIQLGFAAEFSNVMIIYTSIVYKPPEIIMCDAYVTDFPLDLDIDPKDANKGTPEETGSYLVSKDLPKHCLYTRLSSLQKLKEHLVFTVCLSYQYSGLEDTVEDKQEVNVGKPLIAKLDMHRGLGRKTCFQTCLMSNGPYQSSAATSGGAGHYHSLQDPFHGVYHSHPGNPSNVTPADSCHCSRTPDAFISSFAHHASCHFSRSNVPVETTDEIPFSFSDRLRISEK
Outline: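 Fluorescence from AMC release off the quenched LRSR substrate was read after a 4 h reaction at RT. Values were normalised to no-enzyme and uninhibited controls and fitted for IC50 and Hill coefficient.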

OCI-Ly3 cells = test: 4-day proliferation assay, OCI-Ly3; assay type: cell-based, human; conditions: 4 days incubation, CellTiterGLO, read-out: Anti-proliferation: OCI-LY-3 IC50
Outline: as §2

Molecule	IC50 ([1]; Homo sapiens)	IC50 ([2]; Homo sapiens)	IC50 [3]	IC50 (OCI-Ly3 cells; Homo sapiens, 96 h)	IC50 (TMD8 cells; Homo sapiens, 96 h)	IC50 [1]	IC50 [2]	IC50 (TMD8 cells)	IC50 (OCI-Ly3 cells)
N-(4-(4-(aminomethyl)-1H-pyrazol-1-yl)-3-chlorophenyl)-1-(quinolin-5-yl)-5-(trifluoromethyl)-1H-pyrazole-4-carboxamide [Cpd 174]			59 nM			251 nM	112 nM	1700 nM	804 nM
N#Cc1cnn(-c2ncc(NC(=O)c3cnn(-c4cccc5ncccc45)c3C(F)(F)F)cc2Cl)n1 [Cpd 179, N-(5-chloro-6-(4-cyano-2H-1,2,3-triazol-2-yl)pyridin-3-yl)-1-(quinolin-5-yl)-5-(trifluoromethyl)-1H-pyrazole-4-carboxamide]	288 nM	174 nM	42 nM	763 nM	1950 nM				
Nc1ncc(-n2ncc(C(=O)Nc3cnc(-n4nccn4)c(Cl)c3)c2C(F)(F)F)c2cccc(F)c12 [Cpd 110, 1-(1-amino-8-fluoroisoquinolin-4-yl)-N-(5-chloro-6-(2H-1,2,3-triazol-2-yl)pyridin-3-yl)-5-(trifluoromethyl)-1H-pyrazole-4-carboxamide]	25 nM	24 nM	19 nM	220 nM	1440 nM				
O=C(Nc1cnc(-n2nccn2)c(Cl)c1)c1cnn(-c2cncc3c(F)cccc23)c1C(F)(F)F [Cpd 117, N-(5-chloro-6-(2H-1,2,3-triazol-2-yl)pyridin-3-yl)-1-(8-fluoroisoquinolin-4-yl)-5-(trifluoromethyl)-1H-pyrazole-4-carboxamide]	12 nM	12 nM	13 nM	211 nM	1580 nM				
N#Cc1cc(NC(=O)c2cnn(-c3cccc4c(F)cccc34)c2C(F)(F)F)cnc1-n1nccn1 [Cpd 122, N-(5-cyano-6-(2H-1,2,3-triazol-2-yl)pyridin-3-yl)-1-(5-fluoronaphthalen-1-yl)-5-(trifluoromethyl)-1H-pyrazole-4-carboxamide]	52 nM	56 nM	13 nM	132 nM	162 nM				
O=C(O)c1cnn(-c2ncc(NC(=O)c3cnn(-c4cccc5ncccc45)c3C(F)(F)F)cc2Cl)n1 [Cpd 109, 2-(3-chloro-5-(1-(quinolin-5-yl)-5-(trifluoromethyl)-1H-pyrazole-4-carboxamido)pyridin-2-yl)-2H-1,2,3-triazole-4-carboxylic acid]	28 nM	31 nM	10 nM	> 20000 nM	> 20000 nM				
N#Cc1cc(NC(=O)c2cnn(-c3ccc(N)c4ccccc34)c2C(F)(F)F)cnc1-n1nccn1 [Cpd 132, 1-(4-aminonaphthalen-1-yl)-N-(5-cyano-6-(2H-1,2,3-triazol-2-yl)pyridin-3-yl)-5-(trifluoromethyl)-1H-pyrazole-4-carboxamide]	141 nM	95 nM	19 nM	571 nM	7760 nM				
Cc1nc(-n2nccn2)c(Cl)cc1NC(=O)c1cnn(-c2cccc3nnsc23)c1C(F)(F)F [Cpd 121, 1-(benzo[d][1,2,3]thiadiazol-7-yl)-N-(5-chloro-2-methyl-6-(2H-1,2,3-triazol-2-yl)pyridin-3-yl)-5-(trifluoromethyl)-1H-pyrazole-4-carboxamide]	58 nM	50 nM	22 nM	692 nM	1900 nM				
Cc1cnn(-c2ncc(NC(=O)c3cnn(-c4cccc5ncccc45)c3C(F)(F)F)cc2Cl)n1 [Cpd 125, N-(5-chloro-6-(4-methyl-2H-1,2,3-triazol-2-yl)pyridin-3-yl)-1-(quinolin-5-yl)-5-(trifluoromethyl)-1H-pyrazole-4-carboxamide]	46 nM	24 nM	13 nM	285 nM	1020 nM				

Continued, in another order:

IC50 ([1]; Homo sapiens)	IC50 ([2]; Homo sapiens)	IC50 [3]	IC50 (OCI-Ly3 cells; Homo sapiens, 96 h)	Molecule	IC50 (TMD8 cells; Homo sapiens, 96 h)	IC50 [1]	IC50 [2]	IC50 (TMD8 cells)	IC50 (OCI-Ly3 cells)
141 nM	95 nM	30 nM	692 nM	NC(=O)c1ncc(-n2ncc(C(=O)Nc3cnc(-n4nccn4)c(Cl)c3)c2C(F)(F)F)c2ccccc12 [Cpd 387, 4-(4-((5-chloro-6-(2H-1,2,3-triazol-2-yl)pyridin-3-yl)carbamoyl)-5-(trifluoromethyl)-1H-pyrazol-1-yl)isoquinoline-1-carboxamide]	2190 nM				
123 nM	85 nM	15 nM	295 nM	O=C(Nc1cnc(-n2nccn2)c(Cl)c1)c1cnn(-c2cccn3nccc23)c1C(F)(F)F [Cpd 197, N-(5-chloro-6-(2H-1,2,3-triazol-2-yl)pyridin-3-yl)-1-(pyrazolo[1,5-a]pyridin-4-yl)-5-(trifluoromethyl)-1H-pyrazole-4-carboxamide]	7410 nM				
1020 nM	692 nM	39 nM	631 nM	Cc1nc(-n2nccn2)c(C#N)cc1NC(=O)c1cnn(-c2cccc3nnsc23)c1C(F)(F)F [Cpd 314, 1-(benzo[d][1,2,3]thiadiazol-7-yl)-N-(5-cyano-2-methyl-6-(2H-1,2,3-triazol-2-yl)pyridin-3-yl)-5-(trifluoromethyl)-1H-pyrazole-4-carboxamide]	1860 nM				
380 nM	282 nM	40 nM	1390 nM	N#Cc1cc(NC(=O)c2cnn(-c3cccc4nccn34)c2C(F)(F)F)cnc1-n1nccn1 [Cpd 200, N-(5-cyano-6-(2H-1,2,3-triazol-2-yl)pyridin-3-yl)-1-(imidazo[1,2-a]pyridin-5-yl)-5-(trifluoromethyl)-1H-pyrazole-4-carboxamide]	7410 nM				
102 nM	59 nM	54 nM	692 nM	O=C(Nc1cc(Cl)c(-n2nccn2)cc1F)c1cnn(-c2cncc3c(F)cccc23)c1C(F)(F)F [Cpd 302, N-(5-chloro-2-fluoro-4-(2H-1,2,3-triazol-2-yl)phenyl)-1-(8-fluoroisoquinolin-4-yl)-5-(trifluoromethyl)-1H-pyrazole-4-carboxamide]	955 nM				
141 nM	110 nM	38 nM	1500 nM	Cn1nc(-c2ncc(NC(=O)c3cnn(-c4cccc5ncccc45)c3C(F)(F)F)cc2C#N)cc1N [Cpd 181, N-(6-(5-amino-1-methyl-1H-pyrazol-3-yl)-5-cyanopyridin-3-yl)-1-(quinolin-5-yl)-5-(trifluoromethyl)-1H-pyrazole-4-carboxamide]	> 7940 nM				
45 nM	31 nM	58 nM	1150 nM	Cc1nc(-n2nccn2)c(C#N)cc1NC(=O)c1cnn(-c2cnc(N)c3ccccc23)c1C(F)(F)F [Cpd 338, 1-(1-aminoisoquinolin-4-yl)-N-(5-cyano-2-methyl-6-(2H-1,2,3-triazol-2-yl)pyridin-3-yl)-5-(trifluoromethyl)-1H-pyrazole-4-carboxamide]	1440 nM				
107 nM	71 nM	10 nM	295 nM	O=C(Nc1cnc(-n2nccn2)c(Cl)c1)c1cnn(-c2ccnc3ccccc23)c1C(F)(F)F [Cpd 450, N-(5-chloro-6-(2H-1,2,3-triazol-2-yl)pyridin-3-yl)-1-(quinolin-4-yl)-5-(trifluoromethyl)-1H-pyrazole-4-carboxamide]	2820 nM				
46 nM	42 nM	447 nM	313 nM	O=C(Nc1cnc(-n2nccn2)c(Cl)c1)c1cnn(-c2cncc3sccc23)c1C(F)(F)F [Cpd 447, N-(5-chloro-6-(2H-1,2,3-triazol-2-yl)pyridin-3-yl)-1-(thieno[2,3-c]pyridin-4-yl)-5-(trifluoromethyl)-1H-pyrazole-4-carboxamide]	2190 nM				
117 nM	79 nM	1290 nM	550 nM	O=C(Nc1cnc(-n2nccn2)c(Cl)c1)c1cnn(-c2cnc(O)c3ccccc23)c1C(F)(F)F [Cpd 448, N-(5-chloro-6-(2H-1,2,3-triazol-2-yl)pyridin-3-yl)-1-(1-hydroxyisoquinolin-4-yl)-5-(trifluoromethyl)-1H-pyrazole-4-carboxamide]	5620 nM				
251 nM	182 nM	37 nM	1450 nM	N#Cc1cc(NC(=O)c2cnn(-c3cccc4scnc34)c2C(F)(F)F)cnc1-n1nccn1 [Cpd 316, 1-(benzo[d]thiazol-4-yl)-N-(5-cyano-6-(2H-1,2,3-triazol-2-yl)pyridin-3-yl)-5-(trifluoromethyl)-1H-pyrazole-4-carboxamide]	3090 nM				
117 nM	79 nM	41 nM	521 nM	O=C(Nc1cnc(-n2nccn2)c(Cl)c1)c1cnn(-c2cccc3nccn23)c1C(F)(F)F [Cpd 193, N-(5-chloro-6-(2H-1,2,3-triazol-2-yl)pyridin-3-yl)-1-(imidazo[1,2-a]pyridin-5-yl)-5-(trifluoromethyl)-1H-pyrazole-4-carboxamide]	3630 nM				
